According to PMC11091967, “Silicon-Rhodamine Functionalized Evocalcet Probes Potently and Selectively Label Calcium Sensing Receptors In Vitro, In Vivo, and Ex Vivo” (ACS Pharmacology & Translational Science, 2024):

Tests used:
[1] = Photophysical characterization; type: physicochemical; design: λex / λem: unit not given here; conditions: for quantum yield Φ: 94% ethanol, 750 nM, relative to Rhodamine B; for λem / λex: Table 1; for extinction coefficient ε: absorbance at 150–1350 nM, 1 cm cuvette
[2] = target: T1, human CaSR (Homo sapiens, UniProt P41180); assay: FLIPR-based functional CaSR calcium assay in HCAR cells; type: cell-based; conditions: 5 min incubation of HCAR cells, 0.1% BSA
T1 construct: host or cells: CCL39 hamster lung fibroblasts stably transfected (HCAR), Geneticin selection
T1 sequence (P41180 20-1078): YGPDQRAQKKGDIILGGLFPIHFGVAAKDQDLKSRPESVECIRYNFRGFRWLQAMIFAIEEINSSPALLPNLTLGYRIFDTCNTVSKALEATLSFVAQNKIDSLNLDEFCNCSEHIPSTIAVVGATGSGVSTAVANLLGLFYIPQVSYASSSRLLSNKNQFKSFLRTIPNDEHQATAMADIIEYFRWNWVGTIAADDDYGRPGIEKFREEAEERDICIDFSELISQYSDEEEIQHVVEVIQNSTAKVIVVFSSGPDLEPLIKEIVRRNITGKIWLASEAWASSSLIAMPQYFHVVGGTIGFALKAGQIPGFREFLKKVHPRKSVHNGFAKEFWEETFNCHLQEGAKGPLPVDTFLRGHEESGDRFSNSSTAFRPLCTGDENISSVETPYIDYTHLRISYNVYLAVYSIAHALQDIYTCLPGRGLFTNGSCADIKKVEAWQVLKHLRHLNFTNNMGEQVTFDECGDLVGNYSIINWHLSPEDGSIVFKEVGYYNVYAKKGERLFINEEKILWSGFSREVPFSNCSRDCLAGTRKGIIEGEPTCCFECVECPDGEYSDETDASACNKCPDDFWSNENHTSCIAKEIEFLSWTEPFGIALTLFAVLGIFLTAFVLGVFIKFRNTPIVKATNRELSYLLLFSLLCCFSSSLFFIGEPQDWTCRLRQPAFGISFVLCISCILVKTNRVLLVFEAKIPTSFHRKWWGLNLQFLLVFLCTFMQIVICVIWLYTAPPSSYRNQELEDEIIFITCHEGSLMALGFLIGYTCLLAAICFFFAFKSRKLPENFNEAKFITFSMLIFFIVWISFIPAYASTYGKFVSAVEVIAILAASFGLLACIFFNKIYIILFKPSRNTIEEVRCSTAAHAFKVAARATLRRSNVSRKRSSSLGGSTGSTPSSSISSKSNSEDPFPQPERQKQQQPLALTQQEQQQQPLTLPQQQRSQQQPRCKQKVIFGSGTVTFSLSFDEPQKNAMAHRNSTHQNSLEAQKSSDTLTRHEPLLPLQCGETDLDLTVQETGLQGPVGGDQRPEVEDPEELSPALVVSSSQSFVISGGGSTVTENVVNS

[3] = Spectrofluorometric fluorescence in PBS and effect of pH; type: physicochemical; conditions: 750 nM in PBS, peak fluorescence at 670
Description: Spectrofluorometric measurements were carried out by using the Agilent Cary Eclipse instrument. The voltage of the photomultiplier tube (PMT) was set to 600 for EvoSiR4 and EvoSiR6, and for 500 for SiR (4). Fluorescence of the probes was measured at concentrations ranging from 30 to 3000 nM in PBS containing various amounts of bovine serum albumin (BSA) (Sigma, A7906). Quenching experiments for the calculation of BSA binding were performed by adding a 1:1 molar ratio of tannic acid dissolved in ddH2O (Sigma, 403040) to the solution prior to measuring fluorescence.

[4] = system: zebrafish larvae; assay: Zebrafish startle reflex, tolerability and brain penetration with bath-applied probe; type: in vivo, zebrafish (Danio rerio)
Description: For the neuromast labeling experiments, wild-type 4–6 days post fertilization (dpf) zebrafish larvae were incubated in 200 μL of E3 medium containing different doses of the SiR probes (500–5000 nM), 2.5 μM 4-(4-diethylaminostyryl)-1-methyl-pyridinium-iodid (DiAsp, Sigma, D3418), which specifically labels hair cells in the lateral line in 0.5% DMSO for 30 min (35). Next, washing and anesthesia were achieved by placing the larvae in a 35 mm imaging dish (MolBiTec, Imaging dish 1.5) which contained 500 μL of E3 medium with 168 mg/L MS-222 (Tricaine Mehanesulfonate, Sigma) for 10 min. After removing the solution, fish were side-embedded in the imaging dish using 500 μL of 0.75% low-melting temperature agarose (Sigma, A4018). Wide-field imaging was done using the Zeiss Axio Observer fluorescence microscope (LD A-Plan 10× objective, NA = 0.25), and confocal imaging was done using a Zeiss LSM 800 confocal fluorescence microscope (LD LCI Plan-Apochromat 25× objective, NA = 0.8).
For the behavioral analysis, wild-type 4–6 dpf zebrafish larvae were placed individually into custom-built sound delivery system described in a previous publication.[36] For acoustic stimulation, we used a 90 dB stimulus and recorded the subsequent behavioral responses using a high-speed camera (xiQ USB3 vision) at a frame rate of 500 fps using custom scripts written in Python. The camera was placed 30 cm above the sound delivery system. The latency of the startle reflex was quantified manually by using an LED flash (780 nm wavelength) in parallel with the time of stimulus delivery. Escape responses were quantified manually, where we considered a short-latency startle response between 2 and 16 ms and a long-latency startle response above 16 ms.

[5] = system: human parathyroid adenomas; assay: Ex vivo labeling of surgically resected human parathyroid adenomas
Description: The part of the study involving human tissues has been registered at clinicaltirals.gov and can be retrieved under the ID: NCT03831620. The study was approved by the ethics commission of canton Bern, Switzerland (KEKBE 2018–02218). Written informed consent was obtained from all patients. Human parathyroid tissues were surgically resected and were immediately put on dry ice and stored at −80 °C. The tissues were thawed at 4 °C and were washed with PBS thoroughly. The labeling of the tissues was achieved using 500 nM EvoSiR4 for 30 min in PBS containing 0.1% BSA. After labeling, the tissues were washed twice with PBS containing 0.1% BSA. For evocalcet competition experiments, the tissues were coincubated with EvoSiR4 and evocalcet in a 1:5 molar ratio for 30 min and then washed twice with PBS containing 0.1% BSA. The images were acquired using an IVIS Spectrum in vivo imaging system with a λex of 780 nm and λem of 840 nm for the autofluorescence (ICG channel) and with a λex of 650 nm and λem of 670 nm for the EvoSiR label (Cy5 channel).

[6] = system: CYP2D6; design: method as in PMID 29724589; conditions: cited from earlier work

SMILES | fluorescence lifetime τ [1] | quantum yield Φ [1] | λem [1] | λex [1] | extinction coefficient ε [1] | EC50 ([2]; EC50, 1× wash, 1× wash) | EC50 ([2]; EC50, 3× wash, 3× wash) | EC50 ([2]; EC50, 5× wash, 5× wash) | EC50 ([2]; EC50, no wash, no wash) | decrease in fluorescence at pH above 10 [3] | effect on startle responses (percentage elicited, ratio of short-latency escapes, latency) ([4]; bath-applied 5 and 10 μM, acoustic stimulation) | entry into zebrafish CNS ([4]; bath-applied, Tol056 strain, confocal microscopy) | concentration beyond which lethal ([4]; bath-applied, larvae) | concentration up to which no effect on basic locomotion capabilities ([4]; bath-applied, larvae) | concentration above which marked increase in tissue fluorescence ([5]; 650 nm excitation) | CYP2D6 inhibition [6] | decrease in tissue fluorescence upon evocalcet competition ([5]; 500 nM EvoSiR4 co-administered with 2.5 μM evocalcet)
Cc1cc(C(=O)NCCCCNC(=O)Cc2ccc(N3CC[C@H](N[C@H](C)c4cccc5ccccc45)C3)cc2)ccc1C1=C2C=CC(=[N+](C)C)C=C2[Si](C)(C)c2cc(N(C)C)ccc21 [EvoSiR4] | 2.43 ± 0.164 ns | 0.288 | 670 | 650 | 14,175 M^–1 cm^–1 | 380 ± 240 nM | 620 ± 310 nM | 330 ± 210 nM | 37 ± 8 nM | 50% | no significant difference | does not enter the zebrafish CNS | > 20 µM | up to 10 μM | > 500 nM | – | –
C[C@@H](N[C@H]1CCN(c2ccc(CC(=O)O)cc2)C1)c1cccc2ccccc12 [evocalcet] | – | – | – | – | – | – | – | – | – | – | – | – | – | – | – | no direct CYP2D6 inhibition | 64%
Cc1cc(C(=O)NCCCCCCNC(=O)Cc2ccc(N3CC[C@H](N[C@H](C)c4cccc5ccccc45)C3)cc2)ccc1C1=C2C=CC(=[N+](C)C)C=C2[Si](C)(C)c2cc(N(C)C)ccc21 [EvoSiR6] | 2.33 ± 0.135 ns | 0.278 | 670 | 650 | 16,601 M^–1 cm^–1 | – | – | – | – | – | – | – | – | – | – | – | –
